# Experimental data from patent US20050261239A1, “Use of ATP for the manufacture of a medicament for treating certain inflammatory conditions, oxidative stress and fatigue” (Universiteit van Maastricht, priority 2004, published 2005).
# “Also recorded” adds a separate entry of the source. Like-named read-outs stand apart in the source and are kept apart here.
# Key:
# TNF-α [1] = test: Purinergic compounds on LPS+PHA-induced TNF-α secretion in whole blood, Experiment 3; type: cell-based, human; settings: for effect on LPS+PHA-induced TNF-α release (FIG. 8): compound at 300 μM, 24 h, order of inhibition adenosine<AMP<ADP<ATP; for anti-inflammatory effects relative to those of ATP: same whole blood model ex vivo; for inhibiting TNFα production in LPS-PHA stimulated whole blood, compared with ATP: pretreatment of whole blood, initial findings, ATP compared with ADP, AMP or adenosine
# Protocol: (§1) Blood is collected as described for Experiment 1. Whole blood is then aliquoted into 24-well sterile plates and diluted 1:4 with RPMI 1640 (supplemented with L-glutamine). To induce cytokine production, PHA and bacterial LPS are added to whole blood at 1 μg/ml and 10 μg/ml respectively. After addition of ATP and stimulants, the plates are incubated in 5% CO2 at 37° C. for 24 h. Cell-free supernatant fluids are then collected by centrifugation (6000 rpm, 10 min at 4° C.) and stored at −20° C. until tested for presence of cytokines. All incubations are performed in duplicate. ATP, dissolved in RPMI 1640 culture medium, is added to the blood at a final concentration of 1-1000 μM. Blood is pre-incubated with ATP at 5% CO2 at 37° C. for 30 min before stimulation with LPS+PHA. The agonists are added in the same way as ATP, however their stock solutions are prepared in PBS and further diluted in medium.
# [2] = tested on: mice bearing colon tumour; settings: daily intraperitoneal injections of 25 mmol/L for 10 consecutive days (refs 9, 10), cited from earlier work
# IL-10 [3] = test: Purinergic compounds on LPS+PHA-induced IL-10 release in whole blood, Experiment 3; type: cell-based, human; settings: pretreatment of whole blood; initial findings; ATP compared with ADP, AMP or adenosine
# Protocol: as §1
# TNF-α [4] = test: LPS+PHA-induced TNF-α secretion in whole blood ex vivo (ELISA), Experiment 1; type: cell-based, human; settings: 24 h
# From the text: (§2) For the first experiment, purified phyto-haemagglutinin HA16 (PHA) and E. Coli 0.26: B6 lipopolysaccharide (LPS) were from Murex, Dartford, UK and Sigma Chemical Co, St. Louis, USA, respectively. Human TNF-α (7300 pg/ml) was obtained from CLB/Sanquin, The Netherlands. RPMI 1640 medium containing L-glutamine was obtained from Gibco, UK. Adenosine-5′-triphosphate disodium salt (ATP) was purchased from Calbiochem, USA.
# (§3) Blood was collected from 8 healthy subjects in heparin containing vacutainer tubes (Vacutainer, Becton-Dickinson, 170 I.U). […] Whole blood was aliquoted into 24-well sterile plates and diluted 1:4 with RPMI 1640 (supplemented with L-glutamine). To induce cytokine production, PHA and bacterial LPS were added at 1 μg/ml and 10 μg/ml final concentration respectively. […]
# (§4) All cytokines were quantified by means of PeliKine Compact human ELISA kits (CLB/Sanquin, The Netherlands), based on appropriate and validated sets of monoclonal antibodies. […] The antibody on the microtiter plate then captured the cytokine present in a measured volume of sample or standard, and non-bound material was removed by washing. […] Color development was stopped by addition of sulfuric acid and the intensity of the color was measured by a microtiter plate reader (absorbance at 450 nm). The absorbance was transformed to cytokine concentrations (ng/L) using the standard curve. […]
# IL-10 [5] = test: LPS+PHA-induced IL-10 secretion in whole blood ex vivo (ELISA), Experiment 1; type: cell-based, human; settings: 24 h
# From the text: as §2, §3, §4
# IL-6 [6] = test: LPS+PHA-induced IL-6 secretion in whole blood ex vivo (ELISA), Experiment 1; type: cell-based, human; settings: whole blood of healthy subjects, 24 h; ATP 1-300 μM; disodium salt
# From the text: as §2, §3, §4
# TNF-α [7] = test: LPS+PHA-induced TNF-α secretion in whole blood under oxidative stress (H2O2), Experiment 2; type: cell-based, human; settings: whole blood with 1 or 10 mM H2O2, 24 h; effect at 100 and 300 μM ATP; disodium salt
# Protocol: (§5) Blood was collected from 8 healthy subjects in heparin containing vacutainer tubes (Vacutainer, Becton-Dickinson, 170 I.U). […] Whole blood was aliquoted into 24-well sterile plates and diluted 1:4 with RPMI 1640 (supplemented with L-glutamine). To induce cytokine production, PHA and bacterial LPS were added at 1 μg/ml and 10 μg/ml final concentration respectively. After adding the concentrated solutions of ATP and the stimulants the plates were incubated in 5% CO2 at 37° C. for 24 h. After the incubation cell-free supernatant fluids were collected by centrifugation (6000 rpm, 10 min at 4° C.) and stored at −20° C. until tested for presence of cytokines.
# as §4, with “antibodies. Assays were performed as follows.” for “antibodies.”
# IL-10 [8] = test: LPS+PHA-induced IL-10 secretion in whole blood under oxidative stress (H2O2), Experiment 2; type: cell-based, human; settings: whole blood with 1 or 10 mM H2O2, 24 h; ATP 1-300 μM; disodium salt
# Protocol: as §5
# as §4, with “antibodies. Assays were performed as follows.” for “antibodies.”
# IL-6 [9] = test: LPS+PHA-induced IL-6 secretion in whole blood under oxidative stress (H2O2), Experiment 2; type: cell-based, human; settings: whole blood with 1 or 10 mM H2O2, 24 h; ATP 1-300 μM; disodium salt
# Protocol: as §5
# as §4, with “antibodies. Assays were performed as follows.” for “antibodies.”
# [10] = tested on: healthy non-smoking human subjects; test: Lactulose/rhamnose (L/R) intestinal permeability test after indomethacin, Experiment 4; type: in vivo; settings: indomethacin (75 mg + 50 mg) and ATP into duodenum vs indomethacin only; 5 h urine
# Protocol: Methods Intestinal permeability is tested in healthy non-smoking human subjects using the lactulose/rhamnose (L/R) intestinal permeability test. This barrier function test is based on the comparison of intestinal permeation of molecules of different sizes by measuring the ratio of urinary excretion of the disaccharide lactulose and the monosaccharide rhamnose. These two sugars follow different routes of intestinal permeation, i.e., lactulose permeates through the paracellular pathway, whereas rhamnose permeates transcellulary. The experiments are performed as follows: at t=−14 hrs, a Bengmark-type naso-intestinal tube (Flocare, Zoetermeer, The Netherlands) is installed into the stomach. Next, at t=−10 hrs, subjects ingest a capsule of indomethacin (75 mg) immediately followed by administration of either ATP or placebo directly into the subject's duodenum through the inserted tube. At t=−1 hr, after an overnight fast, subjects receive a second dose of indomethacin (50 mg) followed by either ATP or placebo. Then, at t=0, the permeability test is performed as follows: subjects ingest a hyperosmolar drink containing 5 g of lactulose and 0.5 g of L-rhamnose dissolve d in […] water. After ingestion of the hyperosmolar test drink, total urine produced over 5 hours is collected.
# cancer patients = test: Safety of intravenous ATP home infusions in cancer patients; type: in vivo, human; settings: over 60 intravenous home infusions in cancer patients
# From the text: In order to determine the tolerance for ATP as well as the maximally tolerated dose of ATP, the first ATP infusion is preferably administered under medical supervision, usually in an in- or outpatient setting. Subsequent infusions can either be started at the hospital day care centre, at private homes, nursing homes, etc. according to a standardized protocol.
# [11] = tested on: patients with non-small cell lung cancer; settings: 8 stage IIIB/IV patients; 2 to 3 intravenous courses of 96 hours at 4-week intervals (ref 11); cited from earlier work
# [12] = tested on: patients with non-small cell lung cancer; settings: 15 newly diagnosed patients; after 4 ATP courses (ref 12); cited from earlier work
# [13] = tested on: advanced non-small-cell lung cancer patients; settings: cited from earlier work
# [14] = whole blood of healthy subjects, effect at 100 and 300 μM ATP (tested 1-300 μM), disodium salt
smiles,measurement,setting,value
Nc1ccn([C@@H]2O[C@H](COP(=O)(O)OP(=O)(O)OP(=O)(O)O)[C@@H](O)[C@H]2O)c(=O)n1 [CTP],effect on LPS+PHA-induced TNF-α release (FIG. 8),TNF-α [1],not inhibited
Nc1ncnc2c1ncn2[C@@H]1O[C@H](CO)[C@@H](O)[C@H]1O [adenosine],effect on LPS+PHA-induced TNF-α release (FIG. 8),TNF-α [1],least inhibition
same,host weight loss,[2],significant inhibition of host weight loss
same,host weight loss,[2]; listed as adenosine without phosphate,ineffective
Nc1ncnc2c1ncn2[C@@H]1O[C@H](COP(=O)(O)O)[C@@H](O)[C@H]1O [AMP],effect on LPS+PHA-induced TNF-α release (FIG. 8),TNF-α [1],inhibited
same,anti-inflammatory effects relative to those of ATP,TNF-α [1],less marked
same,host weight loss,[2],significant inhibition of host weight loss
"CSc1nc(N)c2ncn([C@@H]3O[C@H](COP(=O)(O)OP(=O)(O)OP(=O)(O)O)[C@@H](O)[C@H]3O)c2n1 [2-MeS-ATP, reference compound]","inhibiting TNFα production in LPS-PHA stimulated whole blood, compared with ATP",TNF-α [1],at least partly mimicked
same,"stimulating IL-10 production in LPS-PHA stimulated whole blood, compared with ATP",IL-10 [3],at least partly mimicked
O=c1ccn([C@@H]2O[C@H](COP(=O)(O)OP(=O)(O)O)[C@@H](O)[C@H]2O)c(=O)[nH]1 [UDP],effect on LPS+PHA-induced TNF-α release (FIG. 8),TNF-α [1],not inhibited
Nc1ncnc2c1ncn2[C@@H]1O[C@H](COP(=O)(O)OP(=O)(O)O)[C@@H](O)[C@H]1O [ADP],effect on LPS+PHA-induced TNF-α release (FIG. 8),TNF-α [1],inhibited
same,anti-inflammatory effects relative to those of ATP,TNF-α [1],less marked
"O=c1ccn([C@@H]2O[C@H](COP(=O)(O)OP(=O)(O)OP(=O)(O)O)[C@@H](O)[C@H]2O)c(=O)[nH]1 [UTP, uridine 5′-triphosphate]",effect on LPS+PHA-induced TNF-α release (FIG. 8),TNF-α [1],not inhibited
"Nc1ncnc2c1ncn2[C@@H]1O[C@H](COP(=O)([O-])OP(=O)([O-])OP(=O)(O)O)[C@@H](O)[C@H]1O.[Na+].[Na+] [ATP, Adenosine-5′-triphosphate disodium salt]",inhibition at 300 µM,"TNF-α [4]; Homo sapiens, 300 μM ATP, whole blood, 10 μg/ml LPS + 1 μg/ml PHA, vs stimulation without ATP, read-out: inhibition of the TNF-α production",65%
same,effect on LPS+PHA-induced TNF-α release,TNF-α [4]; [14],dose-dependent inhibition; also recorded: significantly inhibited
same,stimulation of the IL-10 production,"IL-10 [5]; 300 μM ATP, whole blood, 10 μg/ml LPS + 1 μg/ml PHA, vs stimulation without ATP",62%
same,effect on LPS+PHA-induced IL-10 release,IL-10 [5]; [14],increased the release of IL-10; also recorded: significantly increased
same,effect on LPS+PHA-induced IL-6 release,IL-6 [6],failed to significantly alter; also recorded: not influenced
same,effect on LPS+PHA-induced TNF-α release under oxidative stress,TNF-α [7],dose-dependent reduction; also recorded: significantly inhibited
same,effect on LPS+PHA-induced IL-10 release under oxidative stress,IL-10 [8],"significant, dose-dependent rise; also recorded: significantly increased"
same,effect on LPS+PHA-induced IL-6 release under oxidative stress,IL-6 [9],no effect; also recorded: not influenced
same,effect on LPS+PHA-induced TNF-α release (FIG. 8),TNF-α [1],greatest inhibition
same,"inhibiting TNFα production in LPS-PHA stimulated whole blood, compared with ATP",TNF-α [1],more effective
same,"stimulating IL-10 production in LPS-PHA stimulated whole blood, compared with ATP",IL-10 [3],more effective
same,urinary concentration ratio of lactulose relative to rhamnose,[10],lower
same,hospital admissions,cancer patients,No hospital admissions were necessary
same,serious side effects on the WHO Common Toxicity Criteria scale,cancer patients,no serious side effects grade 3-4
same,host weight loss,[2],significant inhibition of host weight loss
same,body weight,[11],stabilisation of body weight
same,average weight gain,[12],1.3 kg
same,"physical and functional quality of life, appetite, and muscle strength","[13]; ATP group, progressively deteriorated in control group (ref 13)",remained stable
same,life-threatening side effects,"[13]; ATP infusion during 30 hrs, previous study (13)",did not find any life-threatening side effects
same,plasma levels of pro- or anti-inflammatory cytokines,"[13]; further analyses, Dagnelie et al. 2003, unpublished data",no effect
same,loss of weight and muscle mass,[13]; regular infusions vs control group with supportive care only (ref 13),inhibited loss of weight and muscle mass
